Tests used:
human Bub1 = human Bub1 (Homo sapiens (Human), UniProt O43683); experiment: Bub1 kinase assay (TR-FRET); type: biochemical; settings: 10 μM ATP; read-out: Bub1 avg (IC50 [mol/l])
Description: Bub1-inhibitory activity of compounds of the present invention was quantified employing the Bub1 TR-FRET assay as described in the following paragraphs.
N-terminally His6-tagged recombinant catalytic domain of human Bub1 (amino acids 704-1085), expressed in insect cells (Hi5) and purified by Ni-NTA affinity chromatography and subsequent size exclusion chromatography, was used as enzyme. As substrate for the kinase reaction the biotinylated peptide biotin-Ahx-VLLPKKSFAEPG (C-terminus in amid form) was used which can be purchased e.g. form the company Biosyntan (Berlin, Germany).
For the assay 50 nl of a 100 fold concentrated solution of the test compound in DMSO was pipetted into a black low volume 384 well microtiter plate (Greiner Bio-One, Frickenhausen, Germany), 2 μl of a solution of Bub1 in aqueous assay buffer [50 mM Tris/HCl pH 7.5, 10 mM magnesium chloride (MgCl2), 200 mM potassium chloride (KCl), 1.0 mM dithiothreitol (DTT), 0.1 mM sodium ortho-vanadate, 1% (v/v) glycerol, 0.01% (w/v) bovine serum albumine (BSA), 0.005% (v/v) Trition X-100 (Sigma), 1× Complete EDTA-free protease inhibitor mixture (Roche)] were added and the mixture was incubated for 15 min at 22° C. to allow pre-binding of the test compounds to the enzyme before the start of the kinase reaction. Then the kinase reaction was started by the addition of 3 μl of a solution of adenosine-tri-phosphate (ATP, 16.7 μM=>final conc. in the 5 μl assay volume is 10 μM) and substrate (1.67 μM=>final conc. in the 5 μl assay volume is 1 μM) in assay buffer and the resulting mixture was incubated for a reaction time of 60 min at 22° C. The concentration of Bub1 was adjusted depending of the activity of the enzyme lot and was chosen appropriate to have the assay in the linear range, typical concentrations were in the range of 200 ng/ml. The reaction was stopped by the addition of 5 μl of a solution of TR-FRET detection reagents (0.2 μM streptavidine-XL665 [Cisbio Bioassays, Codolet, France] and 1 nM anti-phosho-Serine antibody [Merck Millipore, cat. #35-001] and 0.4 nM LANCE EU-W1024 labeled anti-mouse IgG antibody [Perkin-Elmer, product no. AD0077, as an alternative a Terbium-cryptate-labeled anti-mouse IgG antibody from Cisbio Bioassays can be used]) in an aqueous EDTA-solution (50 mM EDTA, 0.2% (w/v) bovine serum albumin in 100 mM HEPES pH 7.5).
The resulting mixture was incubated 1 h at 22° C. to allow the formation of complex between the phosphorylated biotinylated peptide and the detection reagents. Subsequently the amount of phosphorylated substrate was evaluated by measurement of the resonance energy transfer from the Eu-chelate to the streptavidine-XL. Therefore, the fluorescence emissions at 620 nm and 665 nm after excitation at 350 nm was measured in a TR-FRET reader, e.g. a Rubystar or Pherastar (both from BMG Labtechnologies, Offenburg, Germany) or a Viewlux (Perkin-Elmer). The ratio of the emissions at 665 nm and at […] was taken as the measure for the amount of phosphorylated substrate. The data were normalised (enzyme reaction without inhibitor=0% inhibition, all other assay components but no enzyme=100% inhibition).

[1] = tested on: spindle assembly checkpoint; experiment: SAC-Formation - Paclitaxel-Induced Assay; type: cell-based; settings: Homo sapiens; HeLa cells, paclitaxel 0.05 μM, 24 h, phosphorylated histone H3 on serine 10
Description: The spindle assembly checkpoint assures the proper segregation of chromosomes during mitosis. Upon entry into mitosis, chromosomes begin to condensate which is accompanied by the phosphorylation of histone H3 on serine 10. Dephosphorylation of histone H3 on serine 10 begins in anaphase and ends at early telophase. Accordingly, phosphorylation of histone H3 on serine 10 can be utilized as a marker of cells in mitosis. Nocodazole is a microtubule destabilizing substance. Paclitaxel is a microtubule stabilizing compound. Thus, nocodazole as well as paclitaxel interfere with microtubule dynamics and mobilize the spindle assembly checkpoint. […] The mitotic breakthrough can be detected by the decrease of cells with phosphorylation of histone H3 on serine 10. This decline is used as a marker to determine the capability of compounds of the present invention to induce a mitotic breakthrough. The typical morphological alteration of nuclei with a prematurely completed mitosis after SAC-inhibition can be monitored via image analysis routines supporting those findings.
The nocodazole and paclitaxel variations were used to focus on compounds that are capable of inhibiting a SAC induced by both microtubule destabilization as well as microtubule stabilization. When SAC inducing agents and compounds are given simultaneously, inhibitors that effectively block the SAC during formation or abrogation are identified. When cells are incubated with a SAC inducing agent and the SAC interfering compound is given after a defined time, inhibitors are identified that effectively block SAC abrogation.
Cultivated cells of the human cervical tumor cell line HeLa (ATCC CCL-2) were plated at a density of 1000 cells/well in a 1536-well microtiter plate in 2 μl PAA Ham's F12 Medium supplemented with 1% (v/v) glutamine, 1% (v/v) penicillin, 1% (v/v) streptomycin and 10% (v/v) fetal calf serum. After incubation overnight at 37° C., 10 μl/well paclitaxel at a final concentration of 0.05 μM were added to cells. Test compounds solubilized in dimethyl sulfoxide (DMSO) were added at various concentrations (0 μM, as well as in the range of 0.005 μM-20 μM; the final concentration of the solvent DMSO was 0.5% (v/v)). Cells were incubated for 24 h at 37° C. in the presence of test compounds in combination with paclitaxel. Thereafter, cells were fixed in 4% (v/v) paraformaldehyde in phosphate buffered saline (PBS) at 4° C. overnight then permeabilized in 0.1% (v/v) Triton X™ 100 in PBS at room temperature for 20 min and blocked in 0.5% (v/v) bovine serum albumin (BSA) in PBS at room temperature for 15 min. After washing with PBS, 5 μl/well antibody solution (anti-phospho-histone H3 clone 3H10, FITC; Millipore, Cat #16-222; 1:1000 dilution) was added to cells, which were incubated for 2 h at room temperature. Afterwards, cells were washed with PBS and 5 μl/well solution of HOECHST 33342 dye (5 μg/ml) was added to cells and cells were incubated 15 min at room temperature in the dark. Cells were washed twice with PBS then covered with PBS and stored at 4° C. until analysis. Images were acquired with a PERKIN ELMER OPERA™ High-Content Analysis reader. Images were analyzed with image analysis software MetaXpress™ from Molecular devices utilizing the Mitotic Index application module. In this assay both labels HOECHST 33342 and phosphorylated Histone H3 on serine 10 were measured. HOECHST 33342 labels the DNA and is used to count the cell number. The staining of phosphorylated Histone H3 on serine 10 determines the number of mitotic cells. […] Otherwise cells were arrested at G2/M phase of the cell cycle progression. The raw assay data were further analyzed by four-parametric hill equation using Genedata's Assay Analyzer and Condoseo software.

Chain of human Bub1 (O43683 704-1085): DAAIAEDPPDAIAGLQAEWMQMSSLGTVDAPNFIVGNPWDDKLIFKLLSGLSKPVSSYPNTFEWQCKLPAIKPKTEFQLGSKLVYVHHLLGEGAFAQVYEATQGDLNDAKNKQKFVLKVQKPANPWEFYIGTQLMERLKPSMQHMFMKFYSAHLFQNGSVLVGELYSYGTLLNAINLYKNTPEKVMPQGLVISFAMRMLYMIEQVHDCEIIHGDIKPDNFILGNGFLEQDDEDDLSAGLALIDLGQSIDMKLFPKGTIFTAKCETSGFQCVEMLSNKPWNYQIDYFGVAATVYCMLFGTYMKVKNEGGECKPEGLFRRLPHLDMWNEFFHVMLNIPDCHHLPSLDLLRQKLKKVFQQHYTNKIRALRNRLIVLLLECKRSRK

| SMILES | IC50 (human Bub1) [nM] | IC50 [1] [nM] |
| --- | --- | --- |
| Cc1nsc(Nc2cnccn2)c1C(=O)Nc1ccc(Cl)c(F)c1 [Example 56, N-(4-Chloro-3-fluorophenyl)-3-methyl-5-(pyrazin-2-ylamino)-1,2-thiazole-4-carboxamide] | > 20000 | 250 |
| CCc1ccccc1NC(=O)c1c(C)nsc1Nc1nc2ccccc2s1 [Example 14, 5-(1,3-Benzothiazol-2-ylamino)-N-(2-ethylphenyl)-3-methyl-1,2-thiazole-4-carboxamide] | 8590 | 760 |
| CCc1ccccc1NC(=O)c1c(C)nsc1Nc1ncnc2ccsc12 [Example 13, N-(2-Ethylphenyl)-3-methyl-5-(thieno[3,2-d]pyrimidin-4-ylamino)-1,2-thiazole-4-carboxamide] | > 20000 | 2100 |
| CCc1ccccc1NC(=O)c1c(C)nsc1Nc1nccnc1C#N [Example 34, 5-[(3-Cyanopyrazin-2-yl)amino]-N-(2-ethylphenyl)-3-methyl-1,2-thiazole-4-carboxamide] | > 20000 | 1600 |
| COc1ncc(NC(=O)c2c(C)nsc2Nc2cnc3ccccc3n2)cc1C [Example 121, N-(6-Methoxy-5-methylpyridin-3-yl)-3-methyl-5-(quinoxalin-2-ylamino)-1,2-thiazole-4-carboxamide] | > 20000 | 750 |
| COC(=O)c1cnc(Nc2snc(C)c2C(=O)Nc2ccc(F)c(F)c2)o1 [Example 97, Methyl 2-({4-[(3,4-difluoro-phenyl)carbamoyl]-3-methyl-1,2-thiazol-5-yl}amino)-1,3-oxazole-5-carboxylate] | > 20000 | 8100 |
| CCc1ccccc1NC(=O)c1c(C)nsc1Nc1cnc2ccccc2n1 [Example 19, N-(2-Ethylphenyl)-3-methyl-5-(quinoxalin-2-ylamino)-1,2-thiazole-4-carboxamide] | > 20000 | 140 |
| CCc1ccccc1NC(=O)c1c(C)nsc1Nc1ccnc(C#N)n1 [Example 6, 5-[(2-Cyanopyrimidin-4-yl)amino]-N-(2-ethylphenyl)-3-methyl-1,2-thiazole-4-carboxamide] | > 20000 | 1200 |
| Cc1nsc(Nc2cncc(C(=O)N3CCCC3)n2)c1C(=O)Nc1ccc(F)c(F)c1 [Example 106, N-(3,4-Difluorophenyl)-3-methyl-5-{[6-(pyrrolidin-1-ylcarbonyl)pyrazin-2-yl]amino}-1,2-thiazole-4-carboxamide] | > 20000 | 320 |
| CCOC(=O)c1cnc(Nc2snc(C)c2C(=O)Nc2ccc(F)c(F)c2)o1 [Example 96, Ethyl 2-({4-[(3,4-difluorophenyl)carbamoyl]-3-methyl-1,2-thiazol-5-yl}amino)-1,3-oxazole-5-carboxylate] | > 20000 | 1400 |
| COc1ncc(NC(=O)c2c(C)nsc2Nc2ccc(C#N)cn2)cc1C [Example 120, 5-[(5-Cyanopyridin-2-yl)amino]-N-(6-methoxy-5-methylpyridin-3-yl)-3-methyl-1,2-thiazole-4-carboxamide] | > 20000 | 1200 |
| COc1ccc(NC(=O)c2c(C)nsc2Nc2cnc3ccc(Cl)cc3n2)cn1 [Example 42, 5-[(7-Chloroquinoxalin-2-yl)amino]-N-(6-methoxypyridin-3-yl)-3-methyl-1,2-thiazole-4-carboxamide] | > 20000 | 890 |
| COC(=O)c1ccc(Nc2snc(C)c2C(=O)Nc2ccc(OC)nc2)nc1 [Example 31, Methyl 6-({4-[(6-methoxypyridin-3-yl)carbamoyl]-3-methyl-1,2-thiazol-5-yl}amino)-nicotinate] | > 20000 | > 20000 |
| CCc1ccccc1NC(=O)c1c(C)nsc1Nc1nc(C)nc2ccccc12 [Example 35, N-(2-Ethylphenyl)-3-methyl-5-[(2-methylquinazolin-4-yl)amino]-1,2-thiazole-4-carboxamide] | > 20000 | 4600 |
| Cc1nsc(Nc2cncc(N(C)C)n2)c1C(=O)Nc1ccc(F)c(F)c1 [Example 105, N-(3,4-Difluorophenyl)-5-{[6-(dimethylamino)pyrazin-2-yl]amino}-3-methyl-1,2-thiazole-4-carboxamide] | > 20000 | 20000 |
| CCc1ccccc1NC(=O)c1c(C)nsc1Nc1cnc2ccc(Cl)cc2n1 [Example 41, 5-[(7-Chloroquinoxalin-2-yl)amino]-N-(2-ethylphenyl)-3-methyl-1,2-thiazole-4-carboxamide] | > 20000 | 810 |
| Cc1nsc(Nc2cncc(C(=O)N3CCOCC3)n2)c1C(=O)Nc1ccc(F)c(F)c1 [Example 107, N-(3,4-Difluorophenyl)-3-methyl-5-{[6-(morpholin-4-ylcarbonyl)pyrazin-2-yl]amino}-1,2-thiazole-4-carboxamide] | > 20000 | 210 |
| COc1ccc(NC(=O)c2c(C)nsc2Nc2nc3c(C(F)(F)F)cccc3s2)cc1F [Example 47, N-(3-Fluoro-4-methoxyphenyl)-3-methyl-5-{[4-(trifluoromethyl)-1,3-benzothiazol-2-yl]amino}-1,2-thiazole-4-carboxamide] | > 20000 | 63 |
| CCc1ccccc1NC(=O)c1c(C)nsc1Nc1nc(C)nc2sccc12 [Example 38, N-(2-Ethylphenyl)-3-methyl-5-[(2-methylthieno[2,3-d]pyrimidin-4-yl)amino]-1,2-thiazole-4-carboxamide] | > 20000 | 580 |

Source: US9682995B2, “Amino-substituted isothiazoles” (BAYER PHARMA AKTIENGESELLSCHAFT, priority 2013, dated 2017)
